According to patent US4670421A, “Antiatherosclerotic silanes” (American Cyanamid Company, priority 1982, dated 1987):

Tests used:
[1] = Serum hypolipidemic activity in vivo: lowering of serum cholesterol and triglycerides in rats; set-up: species or system male rats COBS, CD, SD strain; conditions: oral, 0.1% by weight in diet, 5 days, vs control animals
Experimental: (§1) The compounds of the present invention were assayed for two types of biological activity related to their potential use as antiatherosclerotic agents. Compounds were tested in vitro for their ability to inhibit the enzymes fatty acyl CoA:cholesterol acyl transferase (ACAT) and in vivo for serum hypolipidemic activity as measured by their ability to inhibit lipid absorption in rats. The compounds were tested for their ability to inhibit ACAT according to the following procedure:
The compounds were also tested for their ability to lower lipid levels in mammals. The compounds were administered orally admixed with diet (0.1% by weight) to groups of four male rats COBS, CD, SD strain from Charles River Breeding Laboratories, Inc, Wilmington, Mass. A control group of eight rats was maintained on the diet alone; test groups were maintained on the diet plus 0.1% of test compounds by weight. After 5 days treatment, serum cholesterol and triglyceride concentrations were determined by direct enzymatic procedures using a Centrifichem® System 400 autoanalyzer (Union Carbide Co.). Cholesterol concentrations were determined by the combined cholesterol esterase-cholesterol oxidase procedure of Roelschlau et. al., Zeit. Klin. Chem. Lkin. Biochem., 12, 226 (1974). Triglycerides were determined by the combined method of lipase catalyzed hydrolysis of triglycerides to glycerol and free fatty acids [Bucolo, G. and David, H., Clin. Chem. 19, 476 (1973)] and Wahlefeld, A. W., in "Methods of Enzymatic Analysis", Vol. 4, Bergmeyer, H. U., Editor, Academic Press, New York, N.Y. (1974), pp. 1831-1835 and the enzymatic oxidation of the glycerol which leads to the production of colored formazan [Stavropoulos, W. S. and Crouch, R. D., Clin. Chem., 20, No. 7, 857 (1974)]. […] Compounds which produce statistically significant lowering of either sterol or triglycerides are considered to be active.

[2] = target: T1, fatty acyl CoA:cholesterol acyl transferase (ACAT) (Rattus norvegicus, UniProt O70536); test: Inhibition of fatty acyl CoA:cholesterol acyl transferase (ACAT) in vitro (rat adrenal supernatant, oleoyl CoA-14C); format: biochemical; conditions: final concentration 5.2 μg./ml., 37° C.; for inhibition at 5.2 µg/mL: pH 7.4, rat adrenal supernatant; for % Inhibition (ACAT): rat adrenal supernatant, pH 7.4
T1 construct: Rat adrenals were homogenized in 0.2M monobasic potassium phosphate buffer; from tissue; host or cells: rat adrenals, 1000 x g supernatant of the homogenate containing the microsomal fraction
T1 sequence (O70536 1-545): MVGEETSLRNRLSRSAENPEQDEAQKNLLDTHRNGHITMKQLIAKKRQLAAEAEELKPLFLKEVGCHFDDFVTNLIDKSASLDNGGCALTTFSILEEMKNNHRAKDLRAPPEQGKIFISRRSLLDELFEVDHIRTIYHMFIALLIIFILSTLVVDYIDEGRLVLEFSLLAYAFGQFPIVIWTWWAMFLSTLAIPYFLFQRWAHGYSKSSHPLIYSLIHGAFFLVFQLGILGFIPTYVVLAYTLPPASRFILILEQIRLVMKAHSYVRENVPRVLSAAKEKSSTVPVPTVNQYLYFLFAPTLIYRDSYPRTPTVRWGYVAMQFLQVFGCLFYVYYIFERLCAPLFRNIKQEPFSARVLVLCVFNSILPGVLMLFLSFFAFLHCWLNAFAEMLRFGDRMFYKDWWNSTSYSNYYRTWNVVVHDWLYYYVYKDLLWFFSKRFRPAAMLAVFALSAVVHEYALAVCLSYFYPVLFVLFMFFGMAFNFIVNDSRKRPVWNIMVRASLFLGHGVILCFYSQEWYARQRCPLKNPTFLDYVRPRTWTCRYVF
Experimental: as §1
Rat adrenals were homogenized in 0.2M monobasic potassium phosphate buffer, pH 7.4, and centrifuged at 1000 times gravity for 15 minutes at 5° C. The supernatant, containing the microsomal fraction, served as the source of the cholesterol-esterifying enzyme, fatty acyl CoA:cholesterol acyl transferase (ACAT). A mixture comprising 50 parts of adrenal supernatant, 10 parts of albumin (BSA) (50 mg./ml.), 3 parts of test compound (final concentration 5.2 μg./ml.) and 500 parts of buffer was preincubated at 37° C. for 10 minutes. After treatment with 20 parts of oleoyl CoA(^14 C-0.4 μCi) the mixture was incubated at 37° C. for 10 minutes. A control mixture, omitting the test compound, was prepared and treated in the same manner. The lipids from the incubation mixture were extracted into an organic solvent and separated by thin-layer chromatography. The cholesteryl ester fraction was counted in a scintillation counter. This procedure is a modification of that described by Hashimoto, et al., Life Scie., 12 (Part II), 1-12 (1973).

| SMILES | % Lowering of Serum Sterol [1] [%] | % Lowering of Serum Triglycerides [1] [%] | inhibition at 5.2 µg/mL [2] [%] | % Inhibition (ACAT) [2] [%] |
| --- | --- | --- | --- | --- |
| C[Si](C)(C)CCCNc1ccc(C(=O)O)cc1 [4-[3-(Trimethylsilyl)propylamino]benzoic acid] | 18 | 53 | 12 |  |
| C[Si](C)(C)CCCCCCCCCCCNc1ccc(C(=O)O)cc1 [4-[11-(Trimethylsilyl)undecylamino]benzoic acid] | 56 | 75 | 57 |  |
| C[Si](C)(C)CCCCCCCCCCCCCCNc1ccc(C(=O)O)cc1 [4-[14-(Trimethylsilyl)tetradecylamino]benzoic acid] | 60 | 70 | 60 |  |
| CCOC(=O)c1ccc(NCCC[Si](C)(C)C)cc1 [Ethyl 4-[3-(trimethylsilyl)propylamino]benzoate] | 23 | 46 | 59 |  |
| CCOC(=O)c1ccc(NCCCCCCCCCCC[Si](C)(C)C)cc1 [Ethyl 4-[11-(trimethylsilyl)undecylamino]benzoate] | 43 | 22 | 17 |  |
| CCOC(=O)c1ccc(NCCCCCCCCCCCCCC[Si](C)(C)C)cc1 [Ethyl 4-[14-(trimethylsilyl)tetradecylamino]benzoate] | 47 | 38 | 50 |  |
| C[Si](C)(C)CCCNc1ccc(C(=O)[O-])cc1.[Na+] [Sodium 4-[3-(trimethylsilyl)propylamino]benzoate] | 36 | 23 |  | 23 |
| C[Si](C)(C)CCCCCCCCCCCNc1ccc(C(=O)[O-])cc1.[Na+] [Sodium 4-[11-(trimethylsilyl)undecylamino]benzoate] | 52 | 54 |  | 56 |
| C[Si](C)(C)CCCCCCCCCCCCCCNc1ccc(C(=O)[O-])cc1.[Na+] [Sodium 4-[14-(trimethylsilyl)tetradecylamino]benzoate] | 61 | 78 |  | 62 |
